Source: patent publication US20240158348A1, “HERBICIDAL CYCLIC AMIDES N-SUBSTITUTED WITH A HALOALKYLSULFONYLANILIDE GROUP” (FMC Corporation, priority 2021, published 2024)

Experiments:
Assay type in all cases: in vivo
[1] = system: wheat (Triticum aestivum); test: Test C preemergence, wheat; details: 0 is no effect, 100 is complete control
Excerpt: (§1) Seeds of plant species selected from blackgrass (Alopecurus myosuroides), corn (Zea mays), foxtail, giant (giant foxtail, Setaria faberi), goosegrass (Eleusine indica), kochia (Bassia scoparia), oat, wild (wild oat, Avena fatua), pigweed, palmer (palmer amaranth, Amaranthus palmeri), ragweed (common ragweed, Ambrosia artemisiifolia), ryegrass, Italian (Italian ryegrass, Lolium multiflorum), soybean (Glycine max) and wheat (Triticum aestivum) were planted into a blend of loam soil and sand and treated preemergence with a directed soil spray using test chemicals formulated in a non-phytotoxic solvent mixture which included a surfactant.
(§2) At the same time, plants selected from these crop and weed species and also galium (catchweed bedstraw, Galium aparine) and horseweed (Erigeron canadensis) were planted in pots containing the same blend of loam soil and sand and treated with postemergence applications of test chemicals formulated in the same manner. Plants ranged in height from 2 to 10 cm and were in the one- to two-leaf stage for the postemergence treatment. Treated plants and untreated controls were maintained in a greenhouse for 10 or 12 days, after which time all treated plants were compared to untreated controls and visually evaluated for injury. Plant response ratings, summarized in Table A, are based on a 0 to 100 scale where 0 is no effect and 100 is complete control. A dash (-) response means no test result.

[2] = system: pigweed, palmer (palmer amaranth, Amaranthus palmeri); test: Test C preemergence, palmer amaranth; details: 0 is no effect, 100 is complete control
Excerpt: as §1, §2

[3] = system: oat, wild (wild oat, Avena fatua); test: Test C postemergence, wild oat; details: for Oat, Wild plant response rating: visual injury, 0 to 100 scale (0 no effect, 100 complete control); for Plant response rating (0 to 100 scale), Oat, Wild: 0 is no effect, 100 is complete control
Excerpt: as §1, §2

kochia (Bassia scoparia) = test: Test C preemergence, kochia; details: 0 is no effect, 100 is complete control
Excerpt: as §1, §2

[4] = system: goosegrass (Eleusine indica); test: Test C postemergence, goosegrass; details: for Goosegrass plant response rating: visual injury, 0 to 100 scale (0 no effect, 100 complete control); for Plant response rating (0 to 100 scale), Goosegrass: 0 is no effect, 100 is complete control
Excerpt: as §1, §2

[5] = system: ragweed (common ragweed, Ambrosia artemisiifolia); test: Test C postemergence, ragweed; details: for Ragweed plant response rating: visual injury, 0 to 100 scale (0 no effect, 100 complete control); for Plant response rating (0 to 100 scale), Ragweed: 0 is no effect, 100 is complete control
Excerpt: as §1, §2

[6] = system: foxtail, giant (giant foxtail, Setaria faberi); test: Test C postemergence, giant foxtail; details: for Foxtail, Giant plant response rating: visual injury, 0 to 100 scale (0 no effect, 100 complete control); for Plant response rating (0 to 100 scale), Foxtail, Giant: 0 is no effect, 100 is complete control
Excerpt: as §1, §2

[7] = system: goosegrass (Eleusine indica); test: Test C preemergence, goosegrass; details: 0 is no effect, 100 is complete control
Excerpt: as §1, §2

Compound | Plant response rating (0 to 100 scale), Wheat ([1]; 31 g ai/ha Preemergence) | Plant response rating (0 to 100 scale), Wheat ([1]; 125 g ai/ha Preemergence) | Plant response rating (0 to 100 scale), Pigweed, Palmer ([2]; 31 g ai/ha Preemergence) | Plant response rating (0 to 100 scale), Pigweed, Palmer ([2]; 125 g ai/ha Preemergence) | Oat, Wild plant response rating ([3]; 31 g ai/ha Postemergence) | Plant response rating (0 to 100 scale), Oat, Wild ([3]; 125 g ai/ha Postemergence) | Plant response rating (0 to 100 scale), Kochia (kochia (Bassia scoparia); 31 g ai/ha Preemergence) | Plant response rating (0 to 100 scale), Kochia (kochia (Bassia scoparia); 125 g ai/ha Preemergence) | Goosegrass plant response rating ([4]; 31 g ai/ha Postemergence) | Plant response rating (0 to 100 scale), Goosegrass ([4]; 125 g ai/ha Postemergence) | Ragweed plant response rating ([5]; 31 g ai/ha Postemergence) | Ragweed plant response rating ([5]; 125 g ai/ha Postemergence) | Foxtail, Giant plant response rating ([6]; 31 g ai/ha Postemergence) | Plant response rating (0 to 100 scale), Foxtail, Giant ([6]; 125 g ai/ha Postemergence) | Plant response rating (0 to 100 scale), Goosegrass ([7]; 31 g ai/ha Preemergence) | Plant response rating (0 to 100 scale), Goosegrass ([7]; 125 g ai/ha Preemergence) | Plant response rating (0 to 100 scale), Ragweed ([5]; 125 g ai/ha Postemergence) | Oat, Wild plant response rating ([3]; 125 g ai/ha Postemergence) | Goosegrass plant response rating ([4]; 125 g ai/ha Postemergence) | Foxtail, Giant plant response rating ([6]; 125 g ai/ha Postemergence)
Cc1c(NS(=O)(=O)C(F)(F)F)cc(N2CCC(OC3CCC3)C2=O)c(C)c1F (centres unmarked) [Compound 25] | 60 | 100 | 100 | 100 | 0 | 20 | 70 | 100 | 50 | 90 | 60 | 80 | 30 | 30 | 90 | 100 |  |  |  | 
Cc1c(N2CCC(OC3CC3)C2=O)cc(N(COC(=O)C(C)(C)C)S(=O)(=O)C(F)(F)F)c(C)c1F (centres unmarked) [Compound 23] | 10 | 30 | 30 | 100 | 20 | 50 | 20 | 90 | 30 | 90 | 90 |  | 0 | 80 | 70 | 100 | 90 |  |  | 
Cc1c(N2CCCC(OC3CC3)C2=O)cc(N(COC(=O)C(C)(C)C)S(=O)(=O)C(F)(F)F)c(C)c1F (centres unmarked) [Compound 37] | 0 | 20 | 50 | 90 | 20 | 70 | 0 | 90 | 0 | 90 | 60 | 90 | 10 | 80 | 50 | 100 |  |  |  | 
Cc1cc(C)c(N(C(=O)OCC(C)C)S(=O)(=O)C(F)(F)F)cc1N1CCC(OC2CC2)C1=O (centres unmarked) [Compound 21] | 10 | 90 | 100 | 100 | 40 | 70 | 60 | 90 | 90 | 90 | 80 |  | 40 | 90 | 90 | 100 | 90 |  |  | 
Cc1c(NS(=O)(=O)C(F)(F)F)cc(N2CCC(OC3CCC3)C2=O)c(C)c1C (centres unmarked) [Compound 45] | 60 | 100 | 100 | 100 | 10 |  | 90 | 100 | 70 |  | 50 | 80 | 30 |  | 100 | 100 |  | 30 | 90 | 80
Cc1cc(C)c(N2CCC(OCC3CCCO3)C2=O)cc1NS(=O)(=O)C(F)(F)F (centres unmarked) [Compound 42] | 30 | 90 | 80 | 100 | 0 |  | 20 | 90 | 40 |  | 40 | 90 | 20 |  | 50 | 100 |  | 40 | 90 | 90
C=CCO/N=C1\CCN(c2cc(NS(=O)(=O)C(F)(F)F)c(C)cc2C)C1=O [Compound 11] | 90 | 100 | 70 | 100 |  |  | 80 | 100 | 90 | 100 | 60 |  | 60 | 90 | 100 | 100 | 80 |  |  | 
